Experimental data reported in paper PMC2891831, “Insight into the Mechanisms of Adenovirus Capsid Disassembly from Studies of Defensin Neutralization” (PLoS Pathogens, 2010).

Tests used:
[1] = tested on: HAdV-4 (species E); experiment: Infection assay (hexon staining), HAdV-4; assay type: cell-based, human adenovirus; conditions: 15 µM HD5 or HNP1, A549 cells, hexon staining at ~48 h, vs. no defensin
Procedure: (§1) To determine whether sensitivity to α-defensins is a general property of HAdVs, serotypes representative of HAdV species A–F were tested for infectivity in the presence of 15 µM HD5 or HNP1 (Figure 1). Wild type HAdVs rather than vectors were used for these studies, and infectivity was assessed by staining for hexon production. […] These studies indicate that sensitivity to α-defensins is species specific. In addition, particular HAdV serotypes are not equally sensitive to all defensins, indicating defensin sequence specificity as well.
(§2) Figure 1 Sensitivity to neutralization by alpha-defensins is AdV species specific. HAdVs were incubated with 15 µM HD5 (A) or HNP1 (B) and assessed for infectivity on A549 cells. Data are the mean of the percent infectivity compared to control cells infected with each virus in the absence of defensin for at least three independent experiments ± SD. The upper limit for quantification of this assay is 200%. […]
(§3) Prior to use in this assay, each virus stock was titrated on A549 cells. […] In parallel, wells were infected with two-fold serial dilutions of each virus to establish a standard curve for quantification with an upper limit of 200%. […] Total well fluorescence above background was quantified with ImageJ software. For each virus, samples were quantified by nonlinear regression against the standard curve using Prism software (GraphPad Software, Inc., La Jolla, CA).

[2] = tested on: HAdV-3; experiment: Infection assay (hexon staining), HAdV-3; assay type: cell-based, human adenovirus; conditions: 15 µM HNP1, A549 cells, vs. no defensin
Procedure: as §1, §2, §3

[3] = tested on: HAdV-12; experiment: Infection assay (hexon staining), HAdV-12; assay type: cell-based, human adenovirus; conditions: 15 µM HNP1, A549 cells, vs. no defensin
Procedure: as §1, §2, §3

[4] = tested on: HAdV-14; experiment: Infection assay (hexon staining), HAdV-14; assay type: cell-based, human adenovirus; conditions: 15 µM HNP1, A549 cells, vs. no defensin
Procedure: as §1, §2, §3

[5] = tested on: HAdV-16; experiment: Infection assay (hexon staining), HAdV-16; assay type: cell-based, human adenovirus; conditions: 15 µM HNP1, A549 cells, vs. no defensin
Procedure: as §1, §2, §3

[6] = tested on: Serotypes sensitive to HD5; experiment: Infection assay (hexon staining), serotypes sensitive to HD5; assay type: cell-based, human adenovirus; conditions: 15 µM HNP1, A549 cells, vs. no defensin
Procedure: as §1, §2, §3

[7] = tested on: HAdV-5; conditions: low micromolar concentrations; ref [13]; cited from earlier work

Which “sensitivity to neutralization (infectivity)” value [1] does the source give for “HNP1: human alpha-defensin; synthetic, obtained from Peptides International” here?
Its value is “resistant”.

And the inhibition of infection [2]?
Its inhibition of infection is “only modest inhibition”.

What about the inhibition of infection [3] of the same substance?
Its inhibition of infection is “only modest inhibition”.

And the inhibition of infection [4]?
Its inhibition of infection is “only modest inhibition”.

What about the inhibition of infection [5] of the same substance?
The inhibition of infection was “only modest inhibition”.

And the “sensitivity to neutralization (infectivity)” value [6]?
The value was “generally sensitive”.

And the “inhibition of HAdV-5 infection” value [7]?
Its value is “significantly inhibit HAdV-5 infection at low micromolar concentrations”.
